In patent US20250228239A1, “MOLECULES HAVING PESTICIDAL UTILITY, AND INTERMEDIATES, COMPOSITIONS, AND PROCESSES, RELATED THERETO” (priority 2024, published 2025) one finds pest or weed control data, which are given here for 8 molecules.

Test [1] has as its system Beet Armyworm (Spodoptera exigua, LAPHEG). Kind of test: Bioassays on Beet Armyworm (BAW), 128-well diet tray assay. In kind it is in vivo. The note with it: Spodoptera exigua, read-out: BAW. In outline:
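Mortality of second-instar larvae (1–5/well) on artificial diet treated with 50 μg/cm^2 compound, read after 5–7 days at 25° C.; values are means of eight wells.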

The test system of test [2] is Cabbage Looper (Trichoplusia ni, TRIPNI). Kind of test: Bioassays on Cabbage Looper (CL), 128-well diet tray assay. In kind it is in vivo. The settings on record: Trichoplusia ni, read-out: CL. In outline: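 Each of eight wells receives artificial diet treated at 50 μg/cm^2 with the test molecule, then one to five second-instar larvae. Incubation runs five to seven days at 25° C with a 14:10 light-dark cycle under vented covers. Mortality is scored per well as a percentage and averaged.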

[3] abbreviates: Table ABC: Biological Results, species BAW.
Where [4] appears, read: Table ABC: Biological Results, species CL.

Each structure is given as a SMILES string. Where two headings read alike, the source gives them in different places.

With `Nc1ccc(F)c(NC(=O)c2cc(NC(=O)[C@H]3[C@H](c4cc(Cl)c(Cl)c(Cl)c4)C3(Cl)Cl)cc(F)c2Cl)c1F` [F1337, N-(3-Amino-2,6-difluorophenyl)-2-chloro-5-((1R,3R)-2,2-dichloro-3-(3,4,5-trichlorophenyl)cyclopropane-1-carboxamido)-3-fluorobenzamide], the pest or weed control at 50 µg/cm2 in test [1] (setting [3]) and in test [2] (setting [4]) was 50 to 100% throughout.
For `O=C(Nc1cc(NC(=O)C(F)F)c(F)cc1F)c1cc(NC(=O)[C@H]2[C@H](c3ccc(F)c(C(F)(F)F)c3)C2(Cl)Cl)cc(F)c1Cl` [F1406, 2-Chloro-5-((1R,3R)-2,2-dichloro-3-(4-fluoro-3-(trifluoromethyl)phenyl)cyclopropane-1-carboxamido)-N-(5-(2,2-difluoroacetamido)-2,4-difluorophenyl)-3-fluorobenzamide], the pest or weed control at 50 µg/cm2 in test [1] (Beet Armyworm, rating class) lay within 50 to 100%; in test [2] (Cabbage Looper, rating class), 50 to 100%.
On to `CC(=O)Nc1c(F)ccc(NC(=O)c2cc(NC(=O)[C@H]3[C@H](c4cc(Cl)c(Cl)c(Cl)c4)C3(Cl)Cl)ccc2Cl)c1F` [F1532, N-(3-Acetamido-2,4-difluorophenyl)-2-chloro-5-((1R,3R)-2,2-dichloro-3-(3,4,5-trichlorophenyl)cyclopropane-1-carboxamido)benzamide], for which the pest or weed control at 50 µg/cm2 in test [1] (Beet Armyworm, rating class) was in the range of 50 to 100%; in test [2] (Cabbage Looper, rating class), 50 to 100%.
Regarding `O=C(CCl)Nc1c(F)ccc(NC(=O)c2cc(NC(=O)[C@H]3[C@H](c4ccc(F)c(C(F)(F)F)c4)C3(Cl)Cl)ccc2Cl)c1F` [F1726, 2-Chloro-N-(3-(2-chloroacetamido)-2,4-difluorophenyl)-5-((1R,3R)-2,2-dichloro-3-(4-fluoro-3-(trifluoromethyl)phenyl)cyclopropane-1-carboxamido)benzamide], the pest or weed control at 50 µg/cm2 is 50 to 100% in test [1] (Beet Armyworm, rating class) and 50 to 100% in test [2] (Cabbage Looper, rating class).
Turning to `O=C(CC(F)(F)F)Nc1c(F)ccc(NC(=O)c2cc(NC(=O)[C@H]3[C@H](c4ccc(F)c(C(F)(F)F)c4)C3(Cl)Cl)ccc2Cl)c1F` [F1683, 2-Chloro-5-((1R,3R)-2,2-dichloro-3-(4-fluoro-3-(trifluoromethyl)phenyl)cyclopropane-1-carboxamido)-N-(2,4-difluoro-3-(3,3,3-trifluoropropanamido)phenyl)benzamide], the pest or weed control at 50 µg/cm2 is 50 to 100% in test [1] (Beet Armyworm, rating class) and 50 to 100% in test [2] (Cabbage Looper, rating class).
For `Nc1c(F)ccc(NC(=O)c2cc(NC(=O)[C@H]3[C@H](c4cc(Cl)cc(Cl)c4)C3(Cl)Cl)cc(F)c2Cl)c1F` [F1324, N-(3-Amino-2,4-difluorophenyl)-2-chloro-5-((1R,3R)-2,2-dichloro-3-(3,5-dichlorophenyl)cyclopropane-1-carboxamido)-3-fluorobenzamide], the pest or weed control at 50 µg/cm2 in test [1] (setting [3]) and in test [2] (setting [4]) was 50 to 100% each time.
For the molecule `Nc1cc(NC(=O)c2cc(NC(=O)[C@H]3[C@H](c4ccc(Cl)c(Cl)c4)C3(Cl)Cl)ccc2F)c(F)cc1F` [F1490, N-(5-Amino-2,4-difluorophenyl)-5-((1R,3R)-2,2-dichloro-3-(3,4-dichlorophenyl)cyclopropane-1-carboxamido)-2-fluorobenzamide], the pest or weed control at 50 µg/cm2 in test [1] (Beet Armyworm, rating class) fell in the range of 50 to 100%; in test [2] (Cabbage Looper, rating class), 50 to 100%.
Consider `O=C(Nc1cc(NC(=O)C(F)F)c(F)cc1F)c1cc(NC(=O)[C@H]2[C@H](c3ccc(F)c(Cl)c3)C2(Cl)Cl)cc(F)c1Cl` [F1400, 2-Chloro-5-((1R,3R)-2,2-dichloro-3-(3-chloro-4-fluorophenyl)cyclopropane-1-carboxamido)-N-(5-(2,2-difluoroacetamido)-2,4-difluorophenyl)-3-fluorobenzamide], for which the pest or weed control at 50 µg/cm2 in test [1] (Beet Armyworm, rating class) was in the range of 50 to 100%; in test [2] (Cabbage Looper, rating class), 50 to 100%.
